ChEMBL document CHEMBL3085662, “Overman rearrangement and Pomeranz-Fritsch reaction for the synthesis of benzoazepinoisoquinolones to discover novel antitumor agents” (Eur J Med Chem, 2013)

Legend:
A-375 [1] = assay: Cytotoxicity against human A375 cells after 72 hrs by MTT assay; format: functional, cell-based; settings: A-375, 72 h
HCT-116 [2] = assay: Cytotoxicity against human HCT116 cells after 72 hrs by MTT assay; format: functional, cell-based; settings: HCT-116, 72 h
[3] = Cytotoxicity against human LN18 cells at 10 uM after 72 hrs by MTT assay; format: functional; settings: LN-18, 72 h
MDA-MB-231 = assay: Cytotoxicity against human MDA-MB-231 cells at 10 uM after 72 hrs by MTT assay; format: functional; settings: MDA-MB-231, 72 h
PC-3 = assay: Cytotoxicity against human PC3 cells at 10 uM after 72 hrs by MTT assay; format: functional; settings: PC-3, 72 h
HepG2 = assay: Cytotoxicity against human HepG2 cells at 10 uM after 72 hrs by MTT assay; format: functional; settings: HepG2, 72 h
NCI-H69 = assay: Cytotoxicity against human NCI-H69 cells at 10 uM after 72 hrs by MTT assay; format: functional; settings: NCI-H69, 72 h
[4] = Cytotoxicity against human Jurkat E6-1 cells at 10 uM after 72 hrs by MTT assay; format: functional
HT-29 = assay: Cytotoxicity against human HT-29 cells at 10 uM after 72 hrs by MTT assay; format: functional; settings: HT-29, 72 h
[5] = Cytotoxicity against human U937 cells at 10 uM after 72 hrs by MTT assay; format: functional; settings: U-937, 72 h
cells = format: functional; settings: Homo sapiens, 786-0, 72 h
Description: Cytotoxicity against human 786-O cells at 10 uM after 72 hrs by MTT assay

A-375 [6] = assay: Cytotoxicity against human A375 cells at 10 uM after 72 hrs by MTT assay; format: functional; settings: A-375, 72 h
K562 = assay: Cytotoxicity against human K562 cells at 10 uM after 72 hrs by MTT assay; format: functional; settings: K562, 72 h
HCT-116 [7] = assay: Cytotoxicity against human HCT116 cells at 10 uM after 72 hrs by MTT assay; format: functional; settings: HCT-116, 72 h
[8] = Cytotoxicity against human NCI-H1115 cells at 10 uM after 72 hrs by MTT assay; format: functional; settings: NCI-H1115, 72 h
NCI-N87 = assay: Cytotoxicity against human NCI-N87 cells at 10 uM after 72 hrs by MTT assay; format: functional; settings: NCI-N87, 72 h

SMILES	IC50 (A-375 [1])	IC50 (HCT-116 [2])	also measured
C=Cc1cc2c(cc1-c1cc3ccc(OC)c(OC)c3c(=O)[nH]1)OCO2	0.43 µM	1.54 µM	–
COc1ccc2cc(-c3ccc4c(c3)OCO4)n(CC(O)CO)c(=O)c2c1OC (racemic)	> 10 µM	> 10 µM	–
C=CCOc1nc(-c2ccc(OC)c(OC)c2)cc2ccc(OC)c(OC)c12	> 10 µM	> 10 µM	–
COc1ccc(-c2cc3ccc(OC)c(OC)c3c(=O)n2CCC=O)cc1OC	5.82 µM	> 10 µM	–
C=CCOc1nc(-c2ccc3c(c2)OCO3)cc2ccc(OC)c(OC)c12	> 10 µM	> 10 µM	–
COc1ccc2cc(-c3ccc4c(c3)OCO4)n(CC=O)c(=O)c2c1OC	3.77 µM	9.23 µM	–
COc1ccc2cc(-c3ccc4c(c3)OCO4)n(CCC=O)c(=O)c2c1OC	2.93 µM	4.69 µM	–
CNC(=O)c1cc(Oc2ccc(NC(=O)Nc3ccc(Cl)c(C(F)(F)F)c3)cc2)ccn1 [SORAFENIB]	7.56 µM	5.65 µM	–
COc1cc2c(cc1OC)-c1cc3ccc(OC)c(OC)c3c(=O)n1CC=C2	2.1 µM	8.84 µM	–
COc1ccc2cc3n(c(=O)c2c1OC)CC(O)C(O)c1cc2c(cc1-3)OCO2 (centres undefined)	9 µM	22.2 µM	inhibition at 10 µM [3]: 36.5%; inhibition at 10 µM (MDA-MB-231): 9.29%; inhibition at 10 µM (PC-3): 33.9%; inhibition at 10 µM (HepG2): 20.9%; inhibition at 10 µM (NCI-H69): 19.8%; inhibition at 10 µM [4]: 14.8%; inhibition at 10 µM (HT-29): 7.56%; inhibition at 10 µM [5]: 23.5%; inhibition at 10 µM (cells): 11%; inhibition at 10 µM (A-375 [6]): 51.1%; inhibition at 10 µM (K562): 15.6%; inhibition at 10 µM (HCT-116 [7]): 32.8%; inhibition at 10 µM [8]: 25.8%; inhibition at 10 µM (NCI-N87): 18.3%
C=CCn1c(-c2cc3c(cc2C=C)OCO3)cc2ccc(OC)c(OC)c2c1=O	0.17 µM	0.65 µM	–
COc1ccc2cc(-c3ccc4c(c3)OCO4)[nH]c(=O)c2c1OC	7.99 µM	> 10 µM	–
COc1ccc2cc3n(c(=O)c2c1OC)CC=Cc1cc2c(cc1-3)OCO2	0.59 µM	4.87 µM	inhibition at 10 µM [3]: 56.4%; inhibition at 10 µM (MDA-MB-231): 39.1%; inhibition at 10 µM (PC-3): 58.4%; inhibition at 10 µM (HepG2): 54.6%; inhibition at 10 µM (NCI-H69): 56.8%; inhibition at 10 µM [4]: 73%; inhibition at 10 µM (HT-29): 50.3%; inhibition at 10 µM [5]: 66.9%; inhibition at 10 µM (cells): 61.9%; inhibition at 10 µM (A-375 [6]): 86.5%; inhibition at 10 µM (K562): 51%; inhibition at 10 µM (HCT-116 [7]): 59.1%; inhibition at 10 µM [8]: 77.7%; inhibition at 10 µM (NCI-N87): 46%
C=CCn1c(-c2ccc(OC)c(OC)c2)cc2ccc(OC)c(OC)c2c1=O	0.5 µM	> 10 µM	–
C=CCn1c(-c2ccc3c(c2)OCO3)cc2ccc(OC)c(OC)c2c1=O	0.2 µM	0.86 µM	–
COc1ccc(-c2cc3ccc(OC)c(OC)c3c(=O)[nH]2)cc1OC	> 10 µM	> 10 µM	–
CCCS(=O)(=O)Nc1ccc(F)c(C(=O)c2c[nH]c3ncc(-c4ccc(Cl)cc4)cc23)c1F [VEMURAFENIB]	0.18 µM	> 30 µM	–
CO/C=C/Cn1c(-c2ccc3c(c2)OCO3)cc2ccc(OC)c(OC)c2c1=O	0.11 µM	0.42 µM	–
